Consider eight molecules from patent US9487462B2, “Inhibitors of matrix metalloproteinases” (PharmaHungary 2000 Kft., priority 2010, dated 2016).

In data set [1] the test system is neonatal rat cardiac myocytes. Put plainly: Cytoprotective effect in cardiac myocytes subjected to hypoxia and reoxygenation. It counts as cell-based. How it is done:
Neonatal rat hearts were digested and isolated cardiomyocytes were plated onto 24-well plastic plates at […]. The cells were maintained at 37° C. in a humidified atmosphere of 5% CO2 and 95% air in a CO2 incubator until confluence was reached. Cultures at day 3 were used for treatments. Cells were kept under normoxic or simulated ischemic conditions, i.e. the growth medium was changed to a normoxic or hypoxic solution and the cells were incubated under 95% air and 5% CO2 or 95% N2 and 5% CO2 at 37° C. for 4 h, respectively as described in detail (Gorbe A, Giricz Z, Szunyog A, Csont T, Burley D S, Baxter G F, Ferdinandy P. Role of cGMP-PKG signaling in the protection of neonatal rat cardiac myocytes subjected to simulated ischemia/reoxygenation. Basic Res Cardiol. 105:643-650, 2010). The positive control ilomastate (0.5 microM) and MMP-inhibitors at different effective concentrations (EC 5, EC 10, EC 20, and EC50 as determined in previous test examples) were applied during normoxia or simulated ischemia and also during reoxygenation. The vehicle was DMSO. Cell viability was determined after Calcein A M fluorescent staining as described (Karliner J S, Honbo N, Summers K, Gray M O, Goetzl E J. The lysophospholipids sphingosine-1-phosphate and lysophosphatidic acid enhance survival during hypoxia in neonatal rat cardiac myocytes. J Mol Cell Cardiol, 33:1713-7, 2001). Total cell count was determined after digitonin treatment to permeabilize the cells by using propidium iodine fluorescent staining (Roy S S, Hajnoczky G. Calcium, mitochondria and apoptosis studied by fluorescence measurements. Methods. 46:213-223, 2008).

Data set [2] is described as follows: Cytotoxicity, alamarBlue viability, HCT116. Particulars: human, HCT116 colon tumor cells, 48 hours incubation, read-out: HCT116 LC50. It counts as cell-based. How it is done:
(§1) Beside the inhibitory effect on MMPs we tested the cytotoxicity of the selected compounds. These measurements were done in parallel on two cell lines. One of them was the healthy human fibroblast cell line MRC-5 while the other was the human colon tumor cell line HCT116. The viability of the cells was monitored using alamarBlue. This dye is reduced by the cells resulting in an increased fluorescent signal which is proportional to the number of living cells. Cells were incubated with the dilutions of the tested compounds for 48 hours then alamarBlue was added to them for 4 hours. After that the fluorescence changes were detected using excitation at 540 nm and emission wavelength of 590 nm by a Wallac 1420 Microplate Reader. IC50 values were determined for the compounds using six concentrations and duplicate points for each concentration.
(Resazurin is reduced to fluorescent resorufin, in cell work by metabolically active cells.)

The next data set addresses MMP2 (Homo sapiens, UniProt P08253). The data set can be described thus: MMP activity assay (fluorogenic substrate), MMP2 catalytic domain. The format is biochemical. Particulars: Table 2; read-out: MMP2 IC50. How it is done: (§2) MMP activity assays were conducted as follows: MMP2, MMP9, MMP13 catalytic domain was expressed in E. coli in form of inclusion bodies followed by refolding and purification.
(§3) The Protocol of the Activity Assay:
(§4) Stock solution of substrate (Mca-Lys-Pro-Leu-Gly-Leu-Dpa-Ala-Arg-NH2) was prepared in DMSO at a concentration of 6 mM. Assays were performed in an assay buffer (50 mM Tris pH 7.5, 300 mM NaCl, 10 μM ZnSO4, 5 mM CaCl2, 0.005% Brij-35). The final DMSO concentration in all assays was 1.0%. […] The assays were carried out at 37° C. The fluorescence changes, resulting from the substrate cleavage, were detected using excitation at 340 nm and emission wavelength of 405 nm using a Wallac 1420 Microplate Reader. The reaction mixtures were preincubated with the inhibitors for 30 minutes. The reactions were started by the addition of MMP substrate, and the fluorescence intensity changes were measured after 60 minutes. The obtained fluorescence values were normalized and % inhibition values calculated. Dose response curves were determined from 6 concentration points using three fold dilution steps, each concentration point was determined in duplicate. IC50 values were calculated from the dose response curves.

The target in the next data set is MMP9 (Homo sapiens, UniProt P14780). Put plainly: MMP activity assay (fluorogenic substrate), MMP9 catalytic domain. It counts as biochemical. The note with it: Table 2. How it is done: as §2, §3, §4
Data set [3] can be described thus: Cytotoxicity, alamarBlue viability, MRC-5. The format is cell-based. Particulars: human, MRC-5 fibroblast cells, 48 hours incubation, read-out: MRC-5 LC50. As for the experimental part: as §1
The target of a further data set is MMP1 (Homo sapiens (Human), UniProt P03956). Put plainly: MMP activity assay (fluorogenic substrate), MMP1. The format is biochemical. Particulars: Table 2; read-out: MM1 IC50.
The target in the next data set is MMP13 (Homo sapiens (Human), UniProt P45452). The data set can be described thus: MMP activity assay (fluorogenic substrate), MMP13 catalytic domain. It counts as biochemical. Particulars: Table 2; read-out: MMP13 IC50. As for the experimental part: as §2, §3
as §4, with “The fluorescence changes, resulting from the substrate cleavage, were detected using excitation at 340 nm and emission wavelength of 405 nm using a Wallac 1420 Microplate Reader.” left out

Bounds are passed on as bounds.

Sequence of MMP1 (P03956 100-469, species assumed): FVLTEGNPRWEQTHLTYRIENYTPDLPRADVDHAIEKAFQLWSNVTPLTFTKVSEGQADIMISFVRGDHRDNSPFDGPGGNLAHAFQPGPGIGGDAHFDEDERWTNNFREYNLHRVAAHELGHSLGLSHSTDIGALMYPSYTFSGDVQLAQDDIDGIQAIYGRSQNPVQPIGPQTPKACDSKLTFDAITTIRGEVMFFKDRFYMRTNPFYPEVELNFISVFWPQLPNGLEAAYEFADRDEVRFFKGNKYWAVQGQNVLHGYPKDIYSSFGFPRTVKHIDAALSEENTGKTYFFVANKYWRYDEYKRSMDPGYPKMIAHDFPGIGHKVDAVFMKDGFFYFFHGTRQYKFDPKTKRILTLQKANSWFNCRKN

`O=C(O)c1csc(CN(Cc2ccc(F)cc2)Cc2ccc(-c3ccccc3)cc2)n1` [Compound 15, 2-({[(4-Fluorophenyl)methyl][(4-biphenyl)methyl]amino}methyl)-1,3-thiazole-4-carboxylic acid]: the “Cytoprotective effect, % cell survival as compared to vehicle DMSO” value (from here on “Cytoprotective effect, % cell survival”) in data set [1] (normoxia, EC5 concentration 3.0 microM) was 95 ± 2%; in data set [1] (normoxia, EC10 concentration 10.0 microM), 99 ± 2%; in data set [1] (normoxia, EC20 concentration 30.0 microM), 100 ± 2%; in data set [1] (normoxia, EC50 concentration 90.0 microM), 83 ± 2 %; in data set [1] (simulated ischemia, EC5 concentration 3.0 microM) it was 109 ± 5%; in data set [1] (simulated ischemia, EC10 concentration 10.0 microM), 117 ± 5 %. In addition, the “Cytoprotective effect, % cell survival” value in data set [1] (simulated ischemia, EC20 concentration 30.0 microM) is 114 ± 4 %; in data set [1] (simulated ischemia, EC50 concentration 90.0 microM) it was 88 ± 4%. The figures for the CC50 at 48 h in data set [2] and in data set [3] were 1 µM and 2.9 µM, respectively. In addition, the IC50 (commonly the midpoint of a concentration-inhibition curve) on MMP2 amounted to 30 µM; against MMP9, 20 µM; on MMP1, 17 µM; at MMP13, 3 µM.

With `CCOC(=O)c1csc(CN(Cc2ccc(OCc3ccccc3)cc2)Cc2cccnc2)n1` [Compound 16, Ethyl 2-[({[4-(benzyloxy)phenyl]methyl}(pyridin-3-ylmethyl)amino)methyl]-1,3-thiazole-4-carboxylate], the “Cytoprotective effect, % cell survival” value in data set [1] (normoxia, EC5 concentration 4.0 microM) was 105 ± 2%; in data set [1] (normoxia, EC10 concentration 8.0 microM), 108 ± 3 %; in data set [1] (normoxia, EC20 concentration 16.0 microM), 99 ± 2%; in data set [1] (normoxia, EC50 concentration 32.0 microM) it was 91 ± 2 %; in data set [1] (simulated ischemia, EC5 concentration 4.0 microM), 119 ± 3 %; in data set [1] (simulated ischemia, EC10 concentration 8.0 microM) it was 119 ± 3 %. Besides, the “Cytoprotective effect, % cell survival” value is listed as 122 ± 4 % in data set [1] (simulated ischemia, EC20 concentration 16.0 microM) and 113 ± 4 % in data set [1] (simulated ischemia, EC50 concentration 32.0 microM). Moreover, the CC50 at 48 h in data set [2] was found to be 1.8 µM; in data set [3], 1.9 µM. Also, the IC50 at MMP2 was > 500 µM; against MMP9, 280 µM; at MMP1, 340 µM; at MMP13, 5 µM.

Take `CCOC(=O)c1csc(CN(Cc2ccc(F)cc2)Cc2ccc(OCc3ccncc3)cc2)n1` [Compound 18, Ethyl 2-({[(4-fluorophenyl)methyl]({[4-(pyridin-4-ylmethoxy)phenyl]methyl})amino}methyl)-1,3-thiazole-4-carboxylate]: the values for the CC50 at 48 h in data set [2] and in data set [3] were 0.04 µM and 2.9 µM, respectively. Moreover, the half-inhibitory concentration (IC50) at MMP2 is > 500 µM; on MMP9, 230 µM; on MMP1, > 500 µM; on MMP13 it was 13 µM.

As for `CCOC(=O)c1csc(CN(Cc2ccc(OCc3ccncc3)cc2)Cc2cccnc2)n1` [Compound 19, Ethyl 2-{[(pyridin-3-ylmethyl)({[4-(pyridin-4-ylmethoxy)phenyl]methyl})amino]methyl}-1,3-thiazole-4-carboxylate], the CC50 at 48 h in data set [2] stood at 7.3 µM; in data set [3], 27 µM. The IC50 at MMP2 is 200 µM; against MMP9, > 500 µM; on MMP1, 190 µM; on MMP13, 19 µM.

`CCOC(=O)c1csc(CN(Cc2ccncc2)Cc2ccc(OCc3ccccc3)cc2)n1` [Compound 20, Ethyl 2-[({[4-(benzyloxy)phenyl]methyl}(pyridin-4-ylmethyl)amino)methyl]-1,3-thiazole-4-carboxylate]: the figures for the CC50 at 48 h in data set [2] and in data set [3] were 16 µM and 13 µM, respectively. In addition, the 50% inhibitory concentration (IC50) at MMP2 was > 500 µM; against MMP9, > 500 µM; at MMP1 it was 325 µM; on MMP13, 7.5 µM.

Consider `Cn1cc(C(F)(F)F)nc1CN(Cc1ccc(F)cc1)Cc1ccc(OCc2ccccc2)cc1` [Compound 26, {[4-(Benzyloxy)phenyl]methyl}[(4-fluorophenyl)methyl]{[1-methyl-4-(trifluoromethyl)-1H-imidazol-2-yl]methyl}amine], for which the values for the CC50 at 48 h in data set [2] and in data set [3] were 25 µM and 40 µM, respectively. In addition, the IC50 at MMP2 is > 500 µM; at MMP9, > 500 µM; at MMP1 it was > 500 µM; on MMP13, 34 µM.

On to `O=C(O)c1c[nH]c(CNCc2ccc(OCc3cccnc3)cc2)n1` [Compound 31, 2-[({[4-(Pyridin-3-ylmethoxy)phenyl]methyl}amino)methyl]-1H-imidazole-4-carboxylic acid], for which the “Cytoprotective effect, % cell survival” value in data set [1] (normoxia, EC5 concentration 0.3 microM) is 97 ± 4%; in data set [1] (normoxia, EC10 concentration 0.6 microM), 102 ± 5%; in data set [1] (normoxia, EC20 concentration 1.2 microM), 104 ± 3%; in data set [1] (normoxia, EC50 concentration 2.5 microM), 105 ± 4%; in data set [1] (simulated ischemia, EC5 concentration 0.3 microM), 109 ± 5%; in data set [1] (simulated ischemia, EC10 concentration 0.6 microM), 103 ± 4%. The “Cytoprotective effect, % cell survival” value in data set [1] (simulated ischemia, EC20 concentration 1.2 microM) is 111 ± 4%; in data set [1] (simulated ischemia, EC50 concentration 2.5 microM) it was 147 ± 2 %. The values for the CC50 at 48 h in data set [2] and in data set [3] were 70 µM and 200 µM, respectively. Moreover, the IC50 is > 500 µM at MMP2, > 500 µM against MMP9, 235 µM on MMP1 and 10 µM on MMP13.

Regarding `CCOC(=O)c1csc(CN(Cc2ccc(F)cc2)Cc2ccc(-c3ccccc3)cc2)n1` [Compound 32, 2-{[Biphenyl-4-ylmethyl-(4-fluoro-benzyl)-amino]-methyl}-thiazole-4-carboxylic acid ethylester], the CC50 at 48 h is 0.7 µM in data set [2] and 13 µM in data set [3]. The concentration for half-maximal inhibition (IC50) is > 500 µM at MMP2, 200 µM against MMP9, 90 µM on MMP1 and 31 µM on MMP13.
